{
  "source": "patent US20130184338A1",
  "about": "“PHENYLPROPYL CARBAMATE DERIVATIVES FOR USE IN PREVENTING OR TREATING MULTIPLE SCLEROSIS” (Bio-Pharm Solutions Co., Ltd., priority 2011, published 2013)",
  "key": {"[1]": {"tested_on": "MOG EAE rat", "assay": "Anti-multiple sclerosis activity by MOG EAE rat"}, "[2]": {"tested_on": "male mice (ICR)", "assay": "Muscle relaxation: endurance time on rotarod rotating at accelerated speed", "type": "in vivo", "details": "Mus musculus, ip; intraperitoneal, at time of maximum effect; 50% of activity vs vehicle only; read-out: MR test ED50, I = Acc. Rotarod", "protocol": "(§1) For testing, male mice (ICR) were purchased from ORIENT BIO INC. (Korea), divided into several groups with 6 mice in each group, and were adapted for 4-5 days. The mice having the weight ranging from 19 g to 26 g were employed for the test. The pharmacological effect of the test compounds on muscle relaxation was evaluated by Rotarod test, grip strength test, and muscular force (wire hang) test. All mice were adapted to the test environment at one hour before starting the tests. The pharmacological effects of all the test compounds were evaluated by administration through peritoneal cavity of the mice (10 ul/g, bw).\nAt 24 hours before testing, the mice to be tested were preliminarily trained for 5 minutes on a rod rotating at the rate of 6 revolutions per a minute. The pharmacological effect on muscle relaxation of the test compounds were evaluated by observing the mice on a rod for 5 minutes, where the rod was accelerated from 4 to 40 revolutions per a minute during the test time. The endurance time that each mouse endures on the acceleratedly rotated rod without falling off from the rod was recorded. As test time for evaluation, a maximum of 5 minutes was applied. […] This experimentation was conducted according to the method described in the reference, ‘Monville et al. (2006) Comparison of incremental and accelerating protocol of the rotarod test for the assessment of motor deficits in the 6-OHDA model. J. Neurosci. Meth. 158: 219-223’.\n(§2) The results of muscle relaxation activity of the phenyl carbamate compounds measured in above Experimental Examples 11.2 to 11.5 are shown in following Table 5."}, "[3]": {"tested_on": "male mice (ICR)", "assay": "Muscle relaxation: grip strength", "type": "in vivo", "details": "Mus musculus, ip; intraperitoneal, at time of maximum effect; 50% of activity vs vehicle only; read-out: MR test ED50, III = Grip strength", "protocol": "as §1\nA grip strength test using the test animals' forelimbs was performed using an instrument equipped with triangle ring and designed so as to easily grip with the forelimbs of experimental animals, manufactured from Ugo Basile Inc. (Ugo Basile, Model47106, Italy). The test was conducted before and after administration of the compounds to evaluate the effects thereof. […] The mouse was made to grip the rod with its forelimbs, and its tail was pulled, where the force at which the mouse detached from the rod was recorded. The instrument indicated the force in grams. All of the mice were given […] for test, and the 3 highest values among the test opportunities were selected and the mean value was used as the test result. This experimentation was conducted according to the method described in the reference, ‘Nevins et al. (1993) Quantitative grip strength assessment as a means of evaluating muscle relaxation in mice. Psychopharmacol. 110: 92-96’.\nas §2"}, "[4]": {"tested_on": "male SD rats", "assay": "MES (Maximal Electroshock Seizure) test in rats", "details": "for ED50: Rattus norvegicus, po, read-out: Duration of MES test ED50"}, "[5]": {"tested_on": "male mice (ICR)", "assay": "Muscle relaxation: wire hang", "type": "in vivo", "details": "Mus musculus; intraperitoneal, at time of maximum effect; 50% of activity vs vehicle only; read-out: MR test ED50, IV = Wire hang", "protocol": "as §1\nThis experimentation was conducted using a metal wire of 30 cm in length, which was suspended between two pillars at a height of about 40 cm from the bottom covered with a soft pad. […] Each mouse was made to grip the wire using two forelimbs, and the elapse time before the mouse fell off from the wire to the pad on the bottom was recorded in seconds. Each mouse was given 5 opportunities for this test at an interval of 2 minutes period. The highest 3 records among the test opportunities were selected and the mean value was used as the test result. This experimentation was conducted according to the method described in the reference, ‘Jacqueline N. Crawley (1999) Behavioral phenotyping of transgenic and knockout mice: experimental design and evaluation of general health, sensory functions, motor abilities, and specific behavioral tests. Brain Res. 835: 18-26’.\nas §2"}, "[6]": {"tested_on": "male ICR mice", "assay": "MES (Maximal Electroshock Seizure) test in mice", "details": "for ED50: Mus musculus, po"}, "[7]": {"tested_on": "male mice (ICR)", "assay": "Muscle relaxation: residence time on rotarod rotating at fixed speed (15 r.p.m.)", "type": "in vivo", "details": "Mus musculus, ip; intraperitoneal, at time of maximum effect; 50% of activity vs vehicle only; read-out: MR test ED50, II = Fixed 15 r.p.m. Rotarod"}},
  "note": "Where “and” joins values, the source holds several entries; their conditions need not be identical. Equal values may be shown once. Entries after “also recorded” stand apart in the source; their conditions may differ. Read-outs that look alike come from different tables or passages of the source.",
  "data": [
    {"smiles": "C[C@H](OC(N)=O)[C@@H](O)c1ccccc1Cl", "note": "[Compound 1, 1-(2-chlorophenyl)-(S)-1-hydroxypropyl-(S)-2-carbamate]", "values": [
      {"measurement": "body weight gain vs vehicle group", "setting": "[1]; 3, 10 and 50 mg/kg p.o. twice a day, days 0-30, p>0.05", "value": "gained weight similarly than vehicle group"},
      {"measurement": "Disease incidence", "setting": "[1]; all groups (3, 10, 50 mg/kg p.o. twice a day, days 0-29)", "value": 100, "unit": "%"},
      {"measurement": "mortality", "setting": "[1]; rat, in vivo", "value": "0.0% and 5.0%"},
      {"measurement": "CD68 immunoreactivity (% of white matter area) vs vehicle", "setting": "[1]; spinal cord C segment, 50 mg/kg, day 30, p<0.05, 50 mg/kg", "value": "significantly smaller than in vehicle group; also recorded: reduced immunoreactivity"},
      {"measurement": "CD68 immunoreactivity (% of white matter area) vs vehicle", "setting": "[1]; spinal cord T segment, all doses, day 30", "value": "significantly less immunoreactivity; also recorded: significantly reduced immunoreactivity"},
      {"measurement": "CD68 immunoreactivity (% of white matter area) vs vehicle", "setting": "[1]; spinal cord combined C+T segments, all doses, day 30", "value": "significantly less immunoreactivity; also recorded: significantly reduced immunoreactivity"},
      {"measurement": "demyelination area (% of white matter area) vs vehicle", "setting": "[1]; spinal cord, all doses (3, 10, 50 mg/kg), all segments, day 30, MBP staining", "value": "significantly less demyelination than vehicle treated animals; also recorded: significantly diminished demyelinated lesion volumes"},
      {"measurement": "ED50", "setting": "[2]", "value": 39.7, "unit": "mg/kg"},
      {"measurement": "ED50", "setting": "[3]", "value": 40.9, "unit": "mg/kg"},
      {"measurement": "ED50", "setting": "[4]; 0.5 h", "value": 5.9, "unit": "mg/kg"},
      {"measurement": "ED50", "setting": "[4]; 1 h", "value": 3.3, "unit": "mg/kg"},
      {"measurement": "ED50", "setting": "[4]; 2 h", "value": 1.4, "unit": "mg/kg"},
      {"measurement": "ED50", "setting": "[4]; 4 h", "value": 6.9, "unit": "mg/kg"},
      {"measurement": "ED50", "setting": "[4]; 12 h", "value": 36.1, "unit": "mg/kg"},
      {"measurement": "efficacy duration time (MES)", "setting": "[4]; rats, oral", "value": "at least 12 hours"},
      {"measurement": "ED50", "setting": "[5]", "value": 13.3, "unit": "mg/kg"},
      {"measurement": "ED50", "setting": "[6]; 0.25 h, read-out: Duration of MES test ED50", "value": 21.2, "unit": "mg/kg"},
      {"measurement": "ED50", "setting": "[6]; 0.5 h, read-out: Duration of MES test ED50", "value": 22.5, "unit": "mg/kg"},
      {"measurement": "ED50", "setting": "[6]; 1 h, read-out: Duration of MES test ED50", "value": 13.3, "unit": "mg/kg"},
      {"measurement": "ED50", "setting": "[6]; 2 h, read-out: Duration of MES test ED50", "value": 13, "unit": "mg/kg"},
      {"measurement": "ED50", "setting": "[6]; 3 h, read-out: Duration of MES test ED50", "value": 14.7, "unit": "mg/kg"},
      {"measurement": "ED50", "setting": "[6]; 4 h, read-out: Duration of MES test ED50", "value": 18.7, "unit": "mg/kg"},
      {"measurement": "ED50", "setting": "[6]; 6 h, read-out: Duration of MES test ED50", "value": 30, "unit": "mg/kg"},
      {"measurement": "ED50", "setting": "[6]; 8 h, read-out: Duration of MES test ED50", "value": 49.4, "unit": "mg/kg"},
      {"measurement": "ED50", "setting": "[6]; 12 h, read-out: Duration of MES test ED50", "value": 119, "unit": "mg/kg"},
      {"measurement": "ED50", "setting": "[6]; read-out: MES test (po) ED50", "value": 13, "unit": "mg/kg"},
      {"measurement": "efficacy duration time (MES)", "setting": "[6]; mice, oral", "value": "at least 12 hours"},
      {"measurement": "ED50", "setting": "[7]", "value": 23.3, "unit": "mg/kg"}
    ]},
    {"smiles": "C[C@H](OC(N)=O)[C@H](O)c1ccccc1Cl", "note": "[Compound 5, 1-(2-chlorophenyl)-(R)-1-hydroxypropyl-(S)-2-carbamate]", "values": [
      {"measurement": "ED50", "setting": "[2]", "value": 66.9, "unit": "mg/kg"},
      {"measurement": "ED50", "setting": "[3]", "value": 95, "unit": "mg/kg"},
      {"measurement": "ED50", "setting": "[5]", "value": 52.5, "unit": "mg/kg"},
      {"measurement": "ED50", "setting": "[6]; read-out: MES test (po) ED50", "value": 84.1, "unit": "mg/kg"},
      {"measurement": "ED50", "setting": "[7]", "value": 65.5, "unit": "mg/kg"}
    ]}
  ]
}
